Data on five compounds can be found in patent US9018219B2, “Fused aminodihydropyrimidine derivative” (Shionogi & Co., Ltd., priority 2010, dated 2015).

The subject of data set [1] is Neuroblastoma SH-SY5Y cells (SH/APPwt) with human wild-type β-APP excessively expressed. In words: Measurement of β-amyloid (Aβ) production inhibiting effect in cell. It counts as cell-based. To be noted: 24 hours incubation, Amyloid β 1-40 HTRF in culture supernatant, read-out: IC50 (amount needed to inhibit Aβ production by 50%). As to the method:
Neuroblastoma SH-SY5Y cells (SH/APPwt) with human wild-type β-APP excessively expressed therein were prepared at 8×10^5 cells/mL, and 150 μl portions thereof were inoculated into each well of a 96-well culture plate (Falcon). The cells were cultured for 2 hours at 37° C. in a 5% gaseous carbon dioxide incubator. Then, a solution which have been preliminarily prepared by adding and suspending the compound of the present invention (DMSO (dimethyl sulfoxide) solution) so as to be 2 μl/50 μl medium was added to the cell sap. Namely, the final DMSO concentration was 1%, and the amount of the cell culture was 200 μl. After the incubation was performed for 24 hours from the addition of the test compound, 100 μl of the culture supernatant was collected from each fraction. The amount of the Aβ in each fraction was measured.
The Aβ amount was measured as follows. 10 μl of a homogeneous time resolved fluorescence (HTRF) measurement reagent (Amyloid β 1-40 peptide; IBA Molecular Holding, S.A.) and 10 μl of the culture supernatant were put into a 384-well half area microplate (black microplate, Costar) and mixed with each other, and then left standing overnight at 4° C. while the light was shielded. Then, the fluorescence intensity (excitation wavelength: 337 nm, measurement wavelength: 620 nm and 665 nm) was measured with Wallac 1420 multilabel counter (Perkin Elmer life sciences). The Aβ amount was determined from the count rate at each measurement wavelength (10000×Count 665/Count 620), and the amount needed to inhibit Aβ production by 50% (IC50) was calculated from at least six different dosages.
For orientation: Time-resolved FRET reads energy transfer from a long-lived donor to a nearby acceptor.

The nature of data set [2]: Solubility test (turbidity, Test Example 7-1). Format: physicochemical. To be noted: pH 6.8, aqueous buffer, kinetic from dmso stock; JP-II medium, 2% DMSO, turbidity after 4 hours; read-out: solubility assessed by 3 stages. The protocol: A 2-fold dilution series (12 points) of a 10 mM solution of a compound of the present invention in DMSO was added to a medium (JP-I, JP-II) (2%), and solubility was assessed by 3 stages (High; >40 μM, Medium; 3-40 Low; <3 μM) from a turbidity after 4 hours.

The target of a further data set is T1, Recombinant human BACE-1 (Homo sapiens, UniProt P56817).
T1 construct: purchased R&D Systems
In words: Assay of BACE1 inhibitory activity. Format: biochemical. To be noted: Recombinant human BACE1 7.4 nmol/L, substrate peptide 18 nmol/L, pH 5.0, 30° C. for 3 hours; read-out: IC50 (50% inhibitory concentration against the enzymatic activity). The protocol:
48.5 μL of substrate peptide solution (Biotin-XSEVNLDAEFRHDSGC-Eu: X=ε-amino-n-capronic acid, Eu=Europium cryptate) was added to each well of 96-hole half-area plate (a black plate: Costar), and after addition of 0.5 μl of the compound of the present invention (N,N′-dimethylformamide solution) and 1 μl of Recombinant human BACE-1 (R&D Systems), the reaction mixture was incubated at 30° C. for 3 hours. The substrate peptide was synthesized by reacting Cryptate TBPCOOH mono SMP (CIS bio international) with Biotin-XSEVNLDAEFRHDSGC (Peptide Institute, Inc.). The final concentrations of the substrate peptide and Recombinant human BACE1 were adjusted to 18 nmol/L and 7.4 nmol/L, respectively, and the reaction was performed in sodium acetate buffer (50 mmol/L sodium acetate, pH 5.0, 0.008% Triton X-100). After the incubation for reaction, 50 μl of 8.0 μg/ml Streptavidin-XL665 (CIS bio international) dissolved in phosphate buffer (150 mmol/L K2HPO4—KH2PO4, pH 7.0, 0.008% Triton X-100, 0.8 mol/L KF) was added to each well and left stand at 30° C. for 1 hour. After then, fluorescence intensity was measured (excitation wavelength: 320 nm, measuring wavelength: 620 nm and 665 nm) using Wallac 1420 multilabel counter (Perkin Elmer life sciences). Enzymatic activity was determined from counting ratio of each wavelength (10,000×Count 665/Count 620) and 50% inhibitory concentration against the enzymatic activity (IC50) was calculated.

For the next data set, the target named is CYP3A4 (Homo sapiens, UniProt P08684). In words: CYP3A4 fluorescent MBI test. It counts as in vitro ADME. Set-up: host or cells: Escherichia coli. To be noted: 7-BFC substrate, pre-reaction 0 or 30 minutes, CYP3A4 expressed in Escherichia coli. The protocol:
The CYP3A4 fluorescent MBI test is a test of investigating enhancement of CYP3A4 inhibition of the compound of the present invention by a metabolism reaction. 7-benzyloxytrifluoromethylcoumarin (7-BFC) is debenzylated by the CYP3A4 enzyme (enzyme expressed in Escherichia coli) and a metabolite, 7-hydroxytrifluoromethylcoumarin (7-HFC) which emits fluorescent light is produced. The test is performed using 7-HFC production reaction as an index.
The reaction conditions are as follows: substrate, […] 7-BFC; pre-reaction time, 0 or 30 minutes; reaction time, 15 minutes; reaction temperature, 25° C. […]
An enzyme in a K-Pi buffer (pH 7.4) and the compound of the present invention solution as a pre-reaction solution were added to a 96-well plate at the composition of the pre-reaction, a part of it was transferred to another 96-well plate so that it was 1/10 diluted by a substrate in a K-Pi buffer, NADPH as a co-factor was added to initiate a reaction as an index (without preincubation) and, after a predetermined time of a reaction, acetonitrile/0.5 mol/L Tris (trishydroxyaminomethane)=4/1 was added to stop the reaction. […] For the plate on which each index reaction had been performed, a fluorescent value of 7-HFC which is a metabolite was measured with a fluorescent plate reader. […]

The nature of data set [3]: Brain distribution studies. To be noted: brain/plasma; rat, intravenous 0.5 mg/mL/kg, 30 minutes later; read-out: brain Kp value (area ratio brain/plasma). Format: in vivo. As to the method: Compound of the present invention is intravenously administered to a rat at 0.5 mg/mL/kg dosage.
The brain is enucleated and 20-25% of homogenate thereof is prepared with distilled water.
The obtained blood is used as plasma after centrifuging. To the brain sample is added the control plasma at 1:1. To the plasma samples is added the control brains at 1:1. Each sample is measured using LC/MS/MS. The obtained area ratio (a brain/plasma) is used for the brain Kp value.

T1 sequence (P56817 46-501): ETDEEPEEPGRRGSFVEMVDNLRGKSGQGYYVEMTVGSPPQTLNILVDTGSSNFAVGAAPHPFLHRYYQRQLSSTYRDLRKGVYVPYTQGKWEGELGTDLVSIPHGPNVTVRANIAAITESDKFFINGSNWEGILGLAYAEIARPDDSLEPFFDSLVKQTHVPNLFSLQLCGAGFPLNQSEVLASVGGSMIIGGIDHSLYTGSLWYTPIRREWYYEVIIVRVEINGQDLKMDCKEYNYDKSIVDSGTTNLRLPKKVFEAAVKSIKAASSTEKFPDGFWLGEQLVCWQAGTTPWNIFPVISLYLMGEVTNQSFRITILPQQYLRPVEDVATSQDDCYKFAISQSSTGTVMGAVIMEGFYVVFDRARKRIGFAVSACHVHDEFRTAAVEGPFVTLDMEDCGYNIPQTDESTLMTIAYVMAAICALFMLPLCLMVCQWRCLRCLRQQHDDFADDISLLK
Chain of CYP3A4 (P08684 whole entry): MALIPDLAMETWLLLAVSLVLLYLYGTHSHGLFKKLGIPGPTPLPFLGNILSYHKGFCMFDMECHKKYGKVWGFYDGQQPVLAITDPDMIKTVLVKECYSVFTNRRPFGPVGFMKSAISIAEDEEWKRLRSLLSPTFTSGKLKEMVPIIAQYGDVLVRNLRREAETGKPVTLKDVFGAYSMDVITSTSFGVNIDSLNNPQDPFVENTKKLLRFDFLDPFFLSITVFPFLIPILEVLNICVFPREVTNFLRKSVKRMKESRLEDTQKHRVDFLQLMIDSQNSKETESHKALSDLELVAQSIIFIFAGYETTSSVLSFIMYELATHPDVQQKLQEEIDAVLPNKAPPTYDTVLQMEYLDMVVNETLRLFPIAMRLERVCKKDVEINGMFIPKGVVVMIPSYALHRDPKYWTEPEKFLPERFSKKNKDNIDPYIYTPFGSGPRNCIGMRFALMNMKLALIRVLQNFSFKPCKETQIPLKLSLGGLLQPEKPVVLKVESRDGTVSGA

By solubility is commonly meant the dissolved amount per volume that the medium holds. Turning to `C[C@@]1(c2cc(NC(=O)c3ccc(C#N)cn3)ccc2F)Cc2nccn2C(N)=N1` [Compound I-1], the IC50 (in data set [1]; at Recombinant human BACE-1) was at most 1000 nM throughout. Moreover, the solubility at 4 h in data set [2] was over 40 µM. On CYP3A4, the “CYP3A4 fluorescent MBI: difference between IC50 values without and with preincubation” value is on record as “(−) (when the difference is 3 μM or less, this was defined as (−))”.

As for `C[C@@]1(c2cc(NC(=O)c3ccc(C#N)cn3)ccc2F)Cc2ccnn2C(N)=N1` [Compound I-3], the values for the IC50 (in data set [1]; at Recombinant human BACE-1) were 3 nM and 36 nM, respectively.

On to `CC#Cc1cncc(-c2csc([C@]3(C)Cc4nccn4C(N)=N3)c2)c1` [Compound I-4], for which the IC50 (in data set [1]; on Recombinant human BACE-1) was at most 1000 nM each time.

Regarding `CC1(c2cc(NC(=O)c3ccc(C#N)cn3)ccc2F)Cc2cncn2C(N)=N1` (stereo not shown) [Compound I-6], the IC50 (in data set [1]; at Recombinant human BACE-1) was at most 1000 nM each time.

Consider `CC1(c2cc(-c3cccnc3F)ccc2F)Cc2cncn2C(N)=N1` (stereo not shown) [Compound I-7], for which the IC50 (in data set [1]; on Recombinant human BACE-1) was at most 1000 nM throughout. For the same compound, the Kp at 0.5 h in data set [3] amounted to 1.7.
